{"source": "patent US11191273B2", "about": "“Methods of making pyranopyrans such as pyranopyran nitrile and methods of using pyranopyrans such as pyranopyran nitrile” (The United States of America, as Represented by the …, priority 2018, dated 2021)", "key": {"[1]": {"tested_on": "Flavobacterium columnare ALM-00-173", "experiment": "rapid 96-well microplate antibacterial bioassay against F. columnare", "type": "cell-based", "settings": "F. columnare ALM-00-173; for MIC RDCF (relative-to-drug-control florfenicol): MIC divided by MIC of florfenicol; for IC50 / MIC: Flavobacterium columnare; for IC50: ALM00173, 24 h; for MIC: ALM00173, read-out: MIC (minimum inhibitory concentration); for MIC / MIC (minimum inhibitory concentration): 24 h", "description": "An isolate of F. columnare [isolate ALM-00-173 (genomovar II)] was obtained from Dr. Covadonga Arias (School of Fisheries, Aquaculture and Aquatic Sciences, Auburn University, Auburn, Ala.). In order to assure purity, cultures of F. columnare ALM-00-173 were maintained separately on modified Shieh (MS) agar plates (pH 7.2-7.4) (Decostere, A., et al., Laboratory Animals, 36: 396-402 (2003)). Prior to conducting the bioassay, colonies of F. columnare ALM-00-173 were used to prepare the assay culture material by culturing in 75 mL of MS broth for 24 h at 29±1° C. at 150 rpm on a rotary shaker (model C24KC; New Brunswick Scientific, Edison, N.J.). After overnight incubation, a 0.5 McFarland standard of F. columnare ALM-00-173 culture material was prepared by transferring cells from the broth culture to fresh MS broth (Schrader, K. K., and M. D. Harries, Aquaculture Research, 37: 928-937 (2006)).\n(§1) The pure test compounds (−)-diplopyrone and (−)-diplopyrone acetate were dissolved in technical grade 100% methanol while (−)-diplopyrone nitrile was dissolved in technical grade 100% acetone. The three test compounds were evaluated for antibacterial activity against F. columnare ALM-00-173 and E. ictaluri S02-1039 using a rapid 96-well microplate bioassay and following previous procedures (Schrader and Harries 2006). Florfenicol was included as a positive drug control. Control wells (no test material added) were also included in each assay. Final test concentrations of compounds and florfenicol were 0.01, 0.1, 1.0, 10.0, 100.0, and 1000.0 μM. Three replications were used for each dilution of each test compound and drug control, and final results were converted to units of mg/L to allow comparison with previous studies.\n(§2) The 24-h 50% inhibition concentration (IC50) and minimum inhibitory concentration (MIC) were determined using sterile 96-well (flat bottom) polystyrene microplates (Corning Costar Corp., Acton, Mass.) for (−)-diplopyrone and (−)-diplopyrone acetate. In order to prevent solvent interaction with polystyrene, sterile 96-well (flat bottom) quartz microplates (Hellma Cells, Inc., Forest Hills, N.Y.) were used for (−)-diplopyrone nitrile. Initially, dissolved test compounds or florfenicol were micropippeted separately into individual microplate wells (10 μL/well), and the solvent was allowed to completely evaporate before 0.5 MacFarland bacterial culture was added to the microplate wells (200 μL/well). Microplates were incubated at 29±1° C. (VWR model 2005 incubator; Sheldon Manufacturing, Inc., Cornelius, Oreg.). A microplate photometer (SpectraCount, Packard Instrument Company, Meriden, Conn.) was used to measure the absorbance (630 nm) of the microplate wells at time 0 and 24-h. Two replicates of each microplate bioassay were made. Cell viability of F. columnare ALM-00-173 and E. ictaluri S02-1039 was determined at the completion of the growth bioassay for each test compound using the yellow dye 3(4,5-dimethylthiazol-2-yl)-2,5-diphenyl tetrazolium bromide (MTT) and previously outlined procedures (Schrader and Harries 2006). In addition, the minimum bactericidal concentration (MBC) was determined for very active compounds (Schrader and Harries 2006).\n(§3) The means and standard errors of absorbance measurements were calculated, graphed, and compared to controls to determine the MIC, 24-h IC50, and MTT 24-h IC50 for each test compound. The 24-h IC50 and MIC results for each test compound were divided by the respective 24-h IC50 and MIC results obtained for the positive control florfenicol to determine the relative-to-drug-control florfenicol (RDCF) values."}, "[2]": {"tested_on": "Edwardsiella ictaluri S02-1039", "experiment": "rapid 96-well microplate antibacterial bioassay against E. ictaluri", "type": "cell-based", "settings": "E. ictaluri S02-1039; for MIC RDCF (relative-to-drug-control florfenicol): MIC divided by MIC of florfenicol; for IC50 / MIC: Edwardsiella ictaluri; for IC50: S021039, 24 h; for MIC: S021039, read-out: MIC (minimum inhibitory concentration); for MIC / MIC (minimum inhibitory concentration): 24 h", "description": "An isolate of E. ictaluri (isolate S02-1039) was obtained from a person (formerly with the College of Veterinary Medicine, Mississippi State University, Stoneville, Miss.). In order to assure purity, cultures of E. ictaluri S02-1039 were maintained on 3.8% Mueller-Hinton (MH) agar plates (pH 7.3) (Becton, Dickinson and Company, Sparks, Md.). Prior to conducting the bioassay, colonies of E. ictaluri S02-1039 were used to prepare assay culture material by aseptically transferring bacterial cells from colonies to 45 mL of 3.8% MH broth to form a bacterial cell density of 0.5 McFarland standard.\nas §1, §2, §3"}, "[3]": {"settings": "absorbance 630 nm, SE in parentheses, read-out: 24-h IC50 (50% inhibition concentration)"}, "[4]": {"settings": "tetrazolium bromide dye MTT, read-out: MTT 24-h IC50 (cell viability)"}, "[5]": {"settings": "absorbance 630 nm, SE in parentheses"}}, "note": "Several values for one entry are separate records, joined by “and”; a condition that tells them apart may be missing. Identical values can stand only once. Like-named read-outs stand apart in the source and are kept apart here.", "data": [{"smiles": "O=C1C=C[C@H]2O[C@H](CO)C=C[C@H]2O1", "note": "[Desmethylpyranopyran (28), (4aR,6S,8aR)-6-(Hydroxymethyl)-6,8a-dihydropyrano[3,2-b]pyran-2(4aH)-one]", "values": [{"measurement": "MIC RDCF (relative-to-drug-control florfenicol)", "setting": "[1]", "value": "505.6 (0)"}, {"measurement": "IC50", "setting": "[1]; [3]", "value": 76.4, "unit": "µg/mL"}, {"measurement": "IC50", "setting": "[1]; [4]", "value": 79.2, "unit": "µg/mL"}, {"measurement": "MIC", "setting": "[1]; SE in parentheses", "value": 182, "unit": "µg/mL"}, {"measurement": "MIC RDCF (relative-to-drug-control florfenicol)", "setting": "[2]", "value": "50.6 (0)"}, {"measurement": "IC50", "setting": "[2]; [3]", "value": 48.2, "unit": "µg/mL"}, {"measurement": "IC50", "setting": "[2]; [4]", "value": 14.7, "unit": "µg/mL"}, {"measurement": "MIC", "setting": "[2]; SE in parentheses", "value": 18.2, "unit": "µg/mL"}]}, {"smiles": "CC(=O)OC[C@@H]1C=C[C@H]2OC(=O)C=C[C@H]2O1", "note": "[Desmethylpyranopyran acetate (27), (2S,4aR,8aR)-6-Oxo-2,4a,6,8a-tetrahydropyrano[3,2-b]pyran-2-yl]methyl acetate]", "values": [{"measurement": "MIC (minimum inhibitory concentration)", "setting": "[1]; SE in parentheses", "value": "224.0 (0) mg/L"}, {"measurement": "MIC RDCF (relative-to-drug-control florfenicol)", "setting": "[1]", "value": "622.2 (0)"}, {"measurement": "24-h IC50 (50% inhibition concentration)", "setting": "[1]; [5]", "value": ">224.0", "unit": "mg/L"}, {"measurement": "MTT 24-h IC50 (cell viability)", "setting": "[1]; tetrazolium bromide dye MTT", "value": ">224.0", "unit": "mg/L"}, {"measurement": "MIC (minimum inhibitory concentration)", "setting": "[2]; SE in parentheses", "value": "22.4 (0) mg/L"}, {"measurement": "MIC RDCF (relative-to-drug-control florfenicol)", "setting": "[2]", "value": "62.2 (0)"}, {"measurement": "24-h IC50 (50% inhibition concentration)", "setting": "[2]; [5]", "value": "39.2 (1.1) mg/L"}, {"measurement": "MTT 24-h IC50 (cell viability)", "setting": "[2]; tetrazolium bromide dye MTT", "value": "35.8 (4.5) mg/L"}]}, {"smiles": "CS(=O)(=O)c1ccc([C@@H](O)[C@@H](CF)NC(=O)C(Cl)Cl)cc1", "note": "[Florfenicol, reference compound]", "values": [{"measurement": "24-h IC50 (50% inhibition concentration)", "setting": "[1]; [5]", "value": 0.54, "unit": "mg/L"}, {"measurement": "IC50", "setting": "[1]; [3]", "value": 0.69, "unit": "µg/mL"}, {"measurement": "MIC", "setting": "[1]; SE in parentheses", "value": 0.36, "unit": "µg/mL"}, {"measurement": "24-h IC50 (50% inhibition concentration)", "setting": "[2]; [5]", "value": 0.14, "unit": "mg/L"}, {"measurement": "IC50", "setting": "[2]; [3]", "value": 0.18, "unit": "µg/mL"}, {"measurement": "MIC", "setting": "[2]; SE in parentheses", "value": 0.36, "unit": "µg/mL"}]}, {"smiles": "C[C@@H](O)[C@@H]1C=C[C@H]2OC(=O)C=C[C@H]2O1", "note": "[Pyranopyran (2), (4aR,6S,8aR)-6-((R)-1-Hydroxyethyl)-6,8a-dihydropyrano[3,2-b]pyran-2-(4aH)-one]", "values": [{"measurement": "MIC (minimum inhibitory concentration)", "setting": "[1]; SE in parentheses", "value": "196.0 (0) mg/L"}, {"measurement": "MIC RDCF (relative-to-drug-control florfenicol)", "setting": "[1]", "value": "544.4 (0)"}, {"measurement": "24-h IC50 (50% inhibition concentration)", "setting": "[1]; [5]", "value": "76.4 (2.0) mg/L"}, {"measurement": "MTT 24-h IC50 (cell viability)", "setting": "[1]; tetrazolium bromide dye MTT", "value": "78.4 (0) mg/L"}, {"measurement": "MIC (minimum inhibitory concentration)", "setting": "[2]; SE in parentheses", "value": "19.6±0 mg/L and 19.6 (0) mg/L"}, {"measurement": "MIC RDCF (relative-to-drug-control florfenicol)", "setting": "[2]", "value": "54.4 (0)"}, {"measurement": "24-h IC50 (50% inhibition concentration)", "setting": "[2]; [5]", "value": "46.1 ± 1.0", "unit": "mg/L"}, {"measurement": "MTT 24-h IC50 (cell viability)", "setting": "[2]; tetrazolium bromide dye MTT", "value": "22.1 (9.3) mg/L"}]}, {"smiles": "CC(=O)O[C@H](C)[C@@H]1C=C[C@H]2OC(=O)C=C[C@H]2O1", "note": "[Pyranopyran acetate (3), (4aR,6S,8aR)-6-((R)-1-Acetoxyethyl)-6,8a-dihydropyrano[3,2-b]pyran-2-(4aH)-one]", "values": [{"measurement": "MIC (minimum inhibitory concentration)", "setting": "[1]; SE in parentheses", "value": "238 mg/L and 238.0 (0) mg/L"}, {"measurement": "MIC RDCF (relative-to-drug-control florfenicol)", "setting": "[1]", "value": "661.1 (0)"}, {"measurement": "24-h IC50 (50% inhibition concentration)", "setting": "[1]; [5]", "value": ">238.0", "unit": "mg/L"}, {"measurement": "MTT 24-h IC50 (cell viability)", "setting": "[1]; tetrazolium bromide dye MTT", "value": ">238.0", "unit": "mg/L"}, {"measurement": "MIC (minimum inhibitory concentration)", "setting": "[2]; SE in parentheses", "value": "238.0 (0) mg/L"}, {"measurement": "MIC RDCF (relative-to-drug-control florfenicol)", "setting": "[2]", "value": "661.1 (0)"}, {"measurement": "24-h IC50 (50% inhibition concentration)", "setting": "[2]; [5]", "value": "165.4 (1.2) mg/L"}, {"measurement": "MTT 24-h IC50 (cell viability)", "setting": "[2]; tetrazolium bromide dye MTT", "value": "90.4 (4.8) mg/L"}]}, {"smiles": "NC(=O)[C@@H]1C=C[C@H]2OC(=O)C=C[C@H]2O1", "note": "[Pyranopyran amide (29), (2S,4aR,8aR)-6-Oxo-2,4a,6,8a-tetrahydropyrano[3,2-b]pyran-2-carboxamide]", "values": [{"measurement": "MIC RDCF (relative-to-drug-control florfenicol)", "setting": "[1]", "value": "297.9 (243.8)"}, {"measurement": "IC50", "setting": "[1]; [3]", "value": 54.6, "unit": "µg/mL"}, {"measurement": "IC50", "setting": "[1]; [4]", "value": 75.1, "unit": "µg/mL"}, {"measurement": "MIC", "setting": "[1]; SE in parentheses", "value": 107, "unit": "µg/mL"}, {"measurement": "melting point", "value": "160 to 164", "unit": "°C"}, {"measurement": "MIC RDCF (relative-to-drug-control florfenicol)", "setting": "[2]", "value": "54.2 (0)"}, {"measurement": "IC50", "setting": "[2]; [3]", "value": 20.5, "unit": "µg/mL"}, {"measurement": "IC50", "setting": "[2]; [4]", "value": 16.6, "unit": "µg/mL"}, {"measurement": "MIC", "setting": "[2]; SE in parentheses", "value": 19.5, "unit": "µg/mL"}]}, {"smiles": "C#C[C@@H]1C=C[C@H]2OC(=O)C=C[C@H]2O1", "note": "[compound 36, (4aR,6S,8aR)-6-Ethynyl-6,8a-dihydropyrano[3,2-b]pyran-2(4aH)-one]", "values": [{"measurement": "melting point", "value": "153 to 154", "unit": "°C"}]}]}
